The Km is the substrate concentration at which the rate is half of its maximum.

Numbering of substitutions follows the chain as printed. Numbers in names are those of the source. Where no limit is named, active and inactive come without a cut-off here. Entries after “also recorded” stand apart in the source; their conditions may differ. Like-named read-outs stand apart in the source and are kept apart here.

Data set [1] concerns the target T1, bacterial β-glucuronidase (Escherichia coli, UniProt P05804). The following applies: read-out: apparent Km value for cleavage by β-glucuronidase; linear conditions of protein concentration and incubation time; FIG. 1.
The target in data set [2] is T2, UGT2B7Y(268) (Homo sapiens, UniProt P16662).
T2 sequence (P16662 24-529): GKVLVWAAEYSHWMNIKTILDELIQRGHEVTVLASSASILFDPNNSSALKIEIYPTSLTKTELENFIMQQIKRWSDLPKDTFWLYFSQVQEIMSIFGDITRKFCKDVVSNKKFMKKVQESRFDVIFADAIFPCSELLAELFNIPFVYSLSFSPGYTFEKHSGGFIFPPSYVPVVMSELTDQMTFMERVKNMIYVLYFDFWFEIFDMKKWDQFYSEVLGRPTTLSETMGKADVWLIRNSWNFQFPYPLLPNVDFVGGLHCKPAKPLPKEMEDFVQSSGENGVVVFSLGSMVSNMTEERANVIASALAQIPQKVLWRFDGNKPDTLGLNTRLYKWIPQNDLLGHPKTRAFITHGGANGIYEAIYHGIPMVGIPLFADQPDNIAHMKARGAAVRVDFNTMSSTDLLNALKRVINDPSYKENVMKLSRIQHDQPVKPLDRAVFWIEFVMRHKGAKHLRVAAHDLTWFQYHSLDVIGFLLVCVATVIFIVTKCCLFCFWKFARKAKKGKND

Data set [3] has as its target T2, UGT2B7Y(268). In words: Kinetics of glucuronidation, membrane preparations of HK293 cells stably expressing UGT2B7Y(268).
Data set [4] addresses T3, UGT2B7H(268) (Homo sapiens, UniProt P16662, Y268H).
T3 sequence (P16662 24-529 Y268H): T2 sequence (P16662 24-529) with Y245H
In words: Kinetics of glucuronidation, membrane preparations of HK293 cells stably expressing UGT2B7H(268).

Data set [5] deals with T3, UGT2B7H(268).
The target in data set [6] is T1, bacterial β-glucuronidase. In words: Inhibition of 4-methylumbelliferyl-β-D-glucuronide cleavage by β-D-glucuronides. Format: biochemical. On the set-up: purchased Sigma, St. Louis Mo; G-7396. The following applies: for inhibition of 4-methylumbelliferyl-β-D-glucuronide cleavage (production of 4-methylumbelliferone): FIG. 2, varying glucuronide concentrations. From the text: FIG. 2 depicts the effect of varying concentrations of β-D-glucuronide on the ability of β-glucuronidase to cleave various substrates.
Tetrahydrocortisone 3-β-D-glucuronide was obtained from Molecular Probes, Eugene, Oreg. Recombinant control and UGT1A6 membrane preparations were generated and are commercially available from PanVera Corporation, Madison Wis. All other reagents were analytical grade or better and purchased from a variety of commercial sources.
In order to show the feasibility of developing a high throughput inhibition assay, we examined the potential of a variety of structurally dissimilar, commercially available β-D-glucuronides to act as inhibitors for the cleavage of 4-methylumbelliferyl-β-D-glucuronide. These β-D-glucuronides represent compounds that might potentially be formed by UGT activity e.g. phenol and steroid glucuronides.

Data set [7] deals with T2, UGT2B7Y(268). As to conditions: reported by one laboratory; cited from earlier work.
For data set [8], the target named is T3, UGT2B7H(268). As to conditions: reported by another laboratory; cited from earlier work.
For data set [9] the following is noted: cited from earlier work.
Data set [10] concerns the target T4, UGT2B7 (Homo sapiens, UniProt P16662).
T4 sequence (P16662 24-529): T2 sequence (P16662 24-529)
From the text: Heterologous expression and characterization of full length UGT 2B7.
Stable UGT2B7 cell lines were established from embryonic human kidney cells (HK293 cells) and microsomal membrane fractions from these cells were used to assess the properties of the recombinant enzyme. […] The specificity of the purified UGT2B7 will be assessed by determining overall catalytic efficiency with each aglycone substrate, as reflected in a ratio of the two fundamental Michaelis kinetic parameters, Vmax/Km. Reaction rates will be determined over a range of substrate concentrations and nonlinear regression will be used to fit the UGT rate data to velocity versus substrate curves (Graph Pad, Prism). Vmax/Km values will be determined and compared with those determined with the enzyme isolated from HK293 cells (Table 1). […] This ratio will be determined for the purified enzyme using HPLC-based methods for separation and quantification of the two glucuronides.

Data set [11] addresses recombinant human UGT1A6 (Homo sapiens, UniProt P19224).
Substrate in data set [12]: CN1CC[C@]23c4c5ccc(O)c4O[C@H]2C(=O)CC[C@@]3(O)[C@H]1C5
In words: cells, lysate or membranes named.

Substrate in data set [13]: C=CCN1CC[C@]23c4c5ccc(O)c4O[C@H]2C(=O)CC[C@@]3(O)[C@H]1C5
In words: cells, lysate or membranes named. The following applies: two values = two different passages of cultured cells.

Substrate in data set [14]: O=C1CC[C@@]2(O)[C@H]3Cc4ccc(O)c5c4[C@@]2(CCN3CC2CC2)[C@H]1O5
In words: cells, lysate or membranes named. As to conditions: two values = two different passages of cultured cells.

Substrate in data set [15]: C=CCN1CC[C@]23c4c5ccc(O)c4O[C@H]2[C@@H](O)C=C[C@H]3[C@H]1C5
In words: cells, lysate or membranes named.

T1 sequence (P05804 whole entry): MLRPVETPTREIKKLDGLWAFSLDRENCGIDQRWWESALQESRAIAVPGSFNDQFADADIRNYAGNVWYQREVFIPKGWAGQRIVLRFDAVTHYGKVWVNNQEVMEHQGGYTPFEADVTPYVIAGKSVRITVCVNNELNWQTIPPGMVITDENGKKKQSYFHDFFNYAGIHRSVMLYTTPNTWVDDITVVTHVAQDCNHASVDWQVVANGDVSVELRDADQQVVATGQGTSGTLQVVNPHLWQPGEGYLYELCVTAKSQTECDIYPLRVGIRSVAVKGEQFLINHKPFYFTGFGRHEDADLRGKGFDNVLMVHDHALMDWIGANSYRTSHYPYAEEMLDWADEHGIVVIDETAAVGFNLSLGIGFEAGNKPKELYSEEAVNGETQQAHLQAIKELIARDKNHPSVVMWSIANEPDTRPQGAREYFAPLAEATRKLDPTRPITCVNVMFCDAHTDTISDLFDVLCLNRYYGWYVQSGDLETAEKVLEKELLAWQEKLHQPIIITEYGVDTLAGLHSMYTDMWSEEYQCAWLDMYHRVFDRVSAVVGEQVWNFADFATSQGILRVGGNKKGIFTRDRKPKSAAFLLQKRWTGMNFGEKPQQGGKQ
recombinant human UGT1A6, sequence (P19224 27-532): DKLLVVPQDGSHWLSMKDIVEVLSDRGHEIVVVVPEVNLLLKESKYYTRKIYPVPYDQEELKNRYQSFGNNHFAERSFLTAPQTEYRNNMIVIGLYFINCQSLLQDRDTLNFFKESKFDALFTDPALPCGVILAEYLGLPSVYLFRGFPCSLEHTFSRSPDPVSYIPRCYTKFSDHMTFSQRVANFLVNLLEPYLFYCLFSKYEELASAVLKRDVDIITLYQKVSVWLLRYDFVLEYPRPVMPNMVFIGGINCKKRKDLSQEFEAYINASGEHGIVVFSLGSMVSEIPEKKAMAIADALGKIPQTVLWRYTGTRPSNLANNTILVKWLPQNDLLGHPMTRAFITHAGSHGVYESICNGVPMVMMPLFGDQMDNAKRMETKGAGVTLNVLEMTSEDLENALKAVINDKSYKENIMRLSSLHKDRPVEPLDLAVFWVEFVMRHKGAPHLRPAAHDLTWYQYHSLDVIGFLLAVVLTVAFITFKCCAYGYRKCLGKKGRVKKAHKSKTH

As for `Cc1cc(=O)oc2cc(O[C@@H]3O[C@H](C(=O)O)[C@@H](O)[C@H](O)[C@H]3O)ccc12` [4-methylumbelliferyl-β-D-glucuronide], the Km in data set [1] was approximately 56 µM.
`CC(C)NC[C@@H](O)COc1cccc2ccccc12` [R-propanolol]: the “Efficiency Vmax/Km (x100)” value in data set [2] was 53; in data set [5], 192. In addition, the Km in data set [2] was found to be 180 µM. The Vmax in data set [3] is listed as 96 pmol/min/mg protein; in data set [4], 194, 86 pmol/min/mg protein.
On to `CC(C)NC[C@H](O)COc1cccc2ccccc12` [S-propanolol], for which the “Efficiency Vmax/Km (x100)” value in data set [2] is 38, 259; in data set [5] it was 205. The Vmax is 70, 140 pmol/min/mg protein in data set [3] and 148 ± 30 pmol/min/mg protein in data set [4]. Besides, the Km in data set [5] worked out at 72 ± 19 µM.
With `O=C(O)[C@H]1O[C@H](OP(=O)(O)OP(=O)(O)OC[C@H]2O[C@@H](n3ccc(=O)[nH]c3=O)[C@H](O)[C@@H]2O)[C@H](O)[C@@H](O)[C@@H]1O` [UDPGA, Uridine 5′-diphosphoglucuronic acid], the “inhibition of 4-methylumbelliferyl-β-D-glucuronide cleavage (production of 4-methylumbelliferone)” value (shortened to “inhibition”) in [6] was “not an effective competitor”.
On to `CC1CCC(C(C)C)C(O)C1` (stereo not shown) [menthol], for which the “activity toward glucuronide formation” value in data set [7] was “active”; in data set [8] it was “inactive”.
With `CN1CC[C@]23c4c5ccc(O[C@@H]6O[C@H](C(=O)O)[C@@H](O)[C@H](O)[C@H]6O)c4O[C@H]2[C@@H](O)C=C[C@H]3[C@H]1C5` [morphine-3-O-glucuronide], in [9] (human, in vivo), the analgesic effects entry is recorded as “devoid of analgesic effects”; the “effect on the analgesic activity of morphine and morphine-6-O-glucuronide” value is “counteract”.
With `CN1CC[C@]23c4c5ccc(O)c4O[C@H]2[C@@H](O[C@@H]2O[C@H](C(=O)O)[C@@H](O)[C@H](O)[C@H]2O)C=C[C@H]3[C@H]1C5` [morphine-6-O-glucuronide], the “effectiveness as an analgesic relative to the parent compound” value in data set [9] (clinical studies, versus morphine) is 2-3 times.
`CN1CC[C@]23c4c5ccc(O)c4O[C@H]2[C@@H](O)C=C[C@H]3[C@H]1C5` [morphine]: in [10], the “Glucuronidation activity towards opioids” value is listed as “demonstrated”.
On the same count and under the same terms, the result for `C=CCN1CC[C@]23c4c5ccc(O)c4O[C@H]2[C@@H](O)C=C[C@H]3[C@H]1C5` [nalorphine] reads “demonstrated”.
For the molecule `C=CCN1CC[C@]23c4c5ccc(O)c4O[C@H]2C(=O)CC[C@@]3(O)[C@H]1C5` [naloxone], the “Glucuronidation activity towards opioids” value in [10] was “demonstrated”. Further, the Vmax in data set [3] (UGT2B7Y, two values = two different passages of cultured cells) worked out at 2550 pmol/min/mg protein; in [4] (UGT2B7H, two values = two different passages of cultured cells) it was 4530 pmol/min/mg protein.
Consider `O=C1CC[C@@]2(O)[C@H]3Cc4ccc(O)c5c4[C@@]2(CCN3CC2CC2)[C@H]1O5` [naltrexone], for which, in [3], the Vmax is recorded as 840, 1130 pmol/min/mg protein.
As for `Oc1cccc2ccccc12` [α-naphthol], the “4-methylumbelliferyl β-D-glucuronide cleavage slower with UGT1A6 assay compared to control” value in data set [11] is on record as 60%. In addition, the “non-specific interference of the aglycone with the cleavage assay” value in data set [6] (residues from 0 time point extractions, FIG. 3 panel A) is on record as “does not interfere non-specifically”.
Turning to `O=C(O)[C@H]1O[C@@H](Oc2cccc3ccccc23)[C@H](O)[C@@H](O)[C@@H]1O` [α-naphthyl β-D-glucuronide], the figures for the “inhibition” value in [6] and in [6] (listed as α-naphthol β-D-glucuronide) were “weakest; also recorded: weak competitor” and “weak competitive inhibitor”, respectively.
On to `C[C@]12CC[C@@H]3c4ccc(O[C@@H]5O[C@H](C(=O)O)[C@@H](O)[C@H](O)[C@H]5O)cc4CC[C@H]3[C@@H]1CC[C@@H]2O` [β-estradiol-3-(β-D-glucuronide)], for which the “inhibition” value in [6] was “strongest”; in data set [6] (listed as estradiol β-D-glucuronide), “More potent inhibitors”.

B1: UGT2B7Y(268) (Homo sapiens) (protein)
chain: T2 sequence (P16662 24-529)
B1: the Km is recorded as 1360, 900 μM in [12]; 50, 40 μM in data set [13] (other: UGT2B7Y); 140, 180 μM in [14] (other: UGT2B7Y); 77, 121 μM in data set [15]. Besides, the Vmax in data set [12] is listed as 5640, 6040 pmol/min/mg protein; in [13] (other: UGT2B7Y), 3750, 2550 pmol/min/mg protein; in [15], 2870, 3650 pmol/min/mg protein.

B2: UGT2B7H(268) (Homo sapiens; Y268H) (protein)
chain: T2 sequence (P16662 24-529) with Y245H
On to B2, for which the Km in data set [12] is given as 540, 670 μM; in [13] (other: UGT2B7H) it was 41, 60 μM; in [14] (other: UGT2B7H), 63, 200 μM; in data set [15] it was 141, 171 μM. The Vmax in [12] is given as 7510, 8570 pmol/min/mg protein; in [13] (other: UGT2B7H) it was 3810, 4530 pmol/min/mg protein; in data set [15] it was 3990, 4670 pmol/min/mg protein.

These data come from US6551790B2, “Process for glucuronidation screening” (PanVera LLC, priority 1998, dated 2003).
